pKi: −log10 of the molar value.
target: FKBP12 (Homo sapiens, UniProt P62942); test: FKBP12 binding assay (inhibition of rotomase activity); type: biochemical; conditions: apparent Ki
Source text: Preferably, the assay measures inhibition of FKBP12 rotomase activity. Such an assay has also been described by M. W. Harding et al., supra and by J. J. Siekierka et al., supra. In this assay the isomerization of an artificial substrate--N-succinyl-Ala-Ala-Pro-Phe-p-nitroanilide--is followed spectrophotometrically. The assay includes the cis form of the substrate, FKBP12, the inhibitor and chymotrypsin. Chymotrypsin is able to cleave p-nitroanilide from the trans form of the substrate, but not the cis form. Release of p-nitroanilide is measured.
The inhibition of FKBP rotomase activity by the preferred FKBP12 binding compounds present in the compositions of this invention was assayed. In this assay various quantities of FKBP12 binding compound (0nM-10 μM) were added to cis-N-succinyl-Ala-Ala-Pro-Phe-p-nitroanilide in the presence of FKBP12 and chymotrypsin. FKBP12 converts the cis form of the substrate to the trans form. This allows chymotrypsin to cleave p-nitroanilide from the substrate. Release of p-nitroanilide was measured spectrophotometrically. This assay allowed me to measure the change in the first order rate constant of the rotomase activity as a function of FKBP12 binding compound concentration and yielded an estimate of apparent Ki.

Chain of FKBP12 (P62942 whole entry, species assumed): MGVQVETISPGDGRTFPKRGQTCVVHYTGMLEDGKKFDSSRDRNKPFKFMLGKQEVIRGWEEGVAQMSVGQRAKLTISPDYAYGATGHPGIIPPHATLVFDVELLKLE

Compound | pKi
COCc1cccc(COC)c1-c1cncc([C@H](OC(=O)[C@@H]2CCCCN2C(=O)C(=O)C(C)(C)COC)/C(C)=C/[C@H]2CC[C@H](O)CC2)c1 [Compound 51] | < 5.00
C=CCC/C=C(/c1cccnc1)c1ccc([C@H](OC(=O)[C@@H]2CCCCN2C(=O)C(=O)C(C)(C)C)/C(C)=C/C2CCN(C)CC2)s1 [Compound 53] | 7.15
C=CCC/C=C(/c1cccnc1)c1ccc([C@@H](OC(=O)[C@@H]2CCCCN2C(=O)C(=O)C(C)(C)COC)/C(C)=C/C2CCN(C)CC2)s1 [Compound 55] | < 5.00
C=CCC/C=C(/c1cccnc1)c1ccc([C@H](OC(=O)[C@@H]2CCCCN2C(=O)C(=O)C(C)(C)COC)/C(C)=C/C2CCN(C)CC2)s1 [Compound 56] | < 5.30
CCOCc1cc2ccccc2n1-c1cccc([C@H](OC(=O)[C@@H]2CCCCN2C(=O)C(=O)C2(O)CCOCC2)/C(C)=C/[C@H]2CC[C@H](O)CC2)c1 [Compound 57] | 6.03
CCOCc1cc2ccccc2n1-c1cccc([C@H](OC(=O)[C@@H]2CCCCN2C(=O)C(=O)C(C)(C)COC)/C(C)=C/[C@H]2CC[C@H](O)CC2)c1 [Compound 58] | < 5.05
COC/C=C(\c1cncc([C@H](OC(=O)[C@@H]2CCCCN2C(=O)C(=O)CC(C)C)/C(C)=C/[C@H]2CC[C@H](O)CC2)c1)C1CCCCC1 [Compound 60] | 7.24
CCOCc1cccc(COCC)c1-c1csc([C@@H](CCN2CCOCC2)OC(=O)[C@@H]2CCCCN2C(=O)C(=O)C(C)(C)C)c1 [Compound 62] | 7.00
CCOCc1cccc(COCC)c1-c1csc([C@@H](CCN2CCOCC2)OC(=O)[C@@H]2CCCCN2C(=O)C(=O)C(C)(C)C)c1 [Compound 63] | < 5.30
CCOCc1cccc(COCC)c1-c1csc([C@H](CCN2CCOCC2)OC(=O)[C@@H]2CCCCN2C(=O)C(=O)C(C)(C)C)c1 [Compound 64] | 6.47
CCOCc1cc2ccccc2n1-c1cccc([C@H](OC(=O)[C@@H]2CCCCN2C(=O)C(=O)C2(O)CCOCC2)/C(C)=C/[C@H]2CC[C@H](O)CC2)c1 [Compound 65] | 6.31
C=CCC/C=C(\c1ccc([C@@H](CCN2CCOCC2)OC(=O)[C@@H]2CCCCN2C(=O)C(=O)CC(C)C)s1)C1CCOCC1 [Compound 66] | 7.26
CCOCc1cccc(COCC)c1-c1cncc(C(OC(=O)[C@@H]2CCCCN2C(=O)C(=O)C(C)(C)C)/C(C)=C/c2ccncc2)c1 (some centres unmarked) [Compound 67] | 6.57
CCOCc1cccc(COCC)c1-c1cncc(C(OC(=O)[C@@H]2CCCCN2C(=O)C(=O)C2CCOCC2)/C(C)=C/c2ccncc2)c1 (some centres unmarked) [Compound 68] | < 5.30
C=CCC/C=C(\c1ccc([C@H](CCN2CCOCC2)OC(=O)[C@@H]2CCCCN2C(=O)C(=O)CC(C)C)s1)C1CCOCC1 [Compound 69] | 6.13
C=CCC/C=C(\c1ccc([C@@H](CCN2CCOCC2)OC(=O)[C@@H]2CCCCN2C(=O)C(=O)C(C)(C)C)s1)C1CCOCC1 [Compound 70] | 7.35
C=CCC/C=C(/c1cccnc1)c1ccc([C@@H](OC(=O)[C@@H]2CCCCN2C(=O)C(=O)CC(C)C)/C(C)=C/C2CCN(C)CC2)s1 [Compound 71] | 6.44
C=CCC/C=C(/c1cccnc1)c1ccc([C@H](OC(=O)[C@@H]2CCCCN2C(=O)C(=O)CC(C)C)/C(C)=C/C2CCN(C)CC2)s1 [Compound 72] | 6.65
CCOCc1cccc(COCC)c1-c1cncc([C@@H](CCN2CCOCC2)OC(=O)[C@@H]2CCCCN2C(=O)C(=O)CC(C)C)c1 [Compound 73] | 6.14
CCCC/C=C(\c1cncc([C@@H](OC(=O)[C@@H]2CCCCN2C(=O)C(=O)C(C)C)/C(C)=C/C2CCN(C)CC2)c1)C1CCCCC1 [Compound 74] | 6.30
CCCC/C=C(\c1cncc([C@H](OC(=O)[C@@H]2CCCCN2C(=O)C(=O)C(C)C)/C(C)=C/C2CCN(C)CC2)c1)C1CCCCC1 [Compound 75] | 6.73
CCOCc1cccc(COCC)c1-c1cncc([C@H](CCN2CCOCC2)OC(=O)[C@@H]2CCCCN2C(=O)C(=O)CC(C)C)c1 [Compound 77] | 5.68
CCOCc1cccc(COCC)c1-c1cncc([C@@H](CCN2CCOCC2)OC(=O)[C@@H]2CCCCN2C(=O)C(=O)C2(C)CCCCC2)c1 [Compound 78] | 7.11
CCOCc1cccc(COCC)c1-c1cncc([C@H](CCN2CCOCC2)OC(=O)[C@@H]2CCCCN2C(=O)C(=O)C2(C)CCCCC2)c1 [Compound 80] | 6.64
CCOCc1cccc(COCC)c1-c1cncc([C@@H](CCN2CCOCC2)OC(=O)[C@@H]2CCCCN2C(=O)C(=O)C(C)(C)C)c1 [Compound 81] | 6.72
CCOCc1cccc(COCC)c1-c1ccc([C@@H](CCN2CCOCC2)OC(=O)[C@@H]2CCCCN2C(=O)C(=O)CC(C)C)s1 [Compound 83] | 6.50
CCOCc1cccc(COCC)c1-c1ccc([C@H](CCN2CCOCC2)OC(=O)[C@@H]2CCCCN2C(=O)C(=O)CC(C)C)s1 [Compound 84] | 5.70

Compound | pKi
C=CCC/C=C(/c1cccnc1)c1ccc([C@@H](CCN2CCOCC2)OC(=O)[C@@H]2CCCCN2C(=O)C(=O)C2(C)CCCCC2)s1 [Compound 85] | 9.00
CCOCc1cc2ccccc2n1-c1cccc([C@@H](CCN2CCOCC2)OC(=O)[C@@H]2CCCCN2C(=O)C(=O)C2(C)CCCCC2)c1 [Compound 86] | 7.85
C=CCC/C=C(\c1ccc([C@H](CCN2CCOCC2)OC(=O)[C@@H]2CCCCN2C(=O)C(=O)C2(C)CCCCC2)s1)C1CCOCC1 [Compound 87] | 8.64
CCOc1ccc(OCC)c(-c2cncc([C@H](CCCc3ccccc3)OC(=O)[C@@H]3CCCCN3C(=O)C(=O)c3cc(OC)c(OC)c(OC)c3)c2)c1 [Compound 88] | 7.19
CCC/C=C(/c1cccnc1)c1cccc(C(CCN2CCOCC2)OC(=O)[C@@H]2CCCCN2C(=O)C(=O)C(C)(C)C(C)C)c1 (some centres unmarked) [Compound 92] | 7.49
CCOCc1cccc(COCC)c1-c1ccc([C@@H](CCN2CCOCC2)OC(=O)[C@@H]2CCCCN2C(=O)C(=O)C(C)(C)C(C)C)s1 [Compound 93] | 7.36
CCOCc1cc2ccccc2n1-c1cccc([C@@H](CCN2CCOCC2)OC(=O)[C@@H]2CCCCN2C(=O)C(=O)C(C)(C)C(C)C)c1 [Compound 94] | 7.80
C=CCC/C=C(\c1ccc([C@@H](CCN2CCOCC2)OC(=O)[C@@H]2CCCCN2C(=O)C(=O)C2(O)CCCCC2)s1)C1CCOCC1 [Compound 95] | 7.85
C=CCC/C=C(/c1cccnc1)c1ccc([C@@H](CCN2CCOCC2)OC(=O)[C@@H]2CCCCN2C(=O)C(=O)C2(C)CCCCC2)s1 [Compound 96] | 7.55
CCC/C=C(\c1cncc([C@H](OC(=O)[C@@H]2CCCCN2C(=O)C(=O)C(C)(C)C(C)C)/C(C)=C/c2ccncc2)c1)C1CCCCC1 [Compound 98] | 7.21
C=CCC/C=C(/c1cccnc1)c1ccc([C@H](CCN2CCOCC2)OC(=O)[C@@H]2CCCCN2C(=O)C(=O)c2cc(COC)ccc2C)s1 [Compound 101] | 6.30
CCOCc1cccc(COCC)c1-c1ccc([C@@H](CCN2CCOCC2)OC(=O)[C@@H]2CCCCN2C(=O)C(=O)c2cc(COC)ccc2C)s1 [Compound 102] | 6.15
CCCc1ccc(CCC)n1-c1cccc([C@@H](CCN2CCOCC2)OC(=O)[C@@H]2CCCCN2C(=O)C(=O)C(C)(C)C(C)C)c1 [Compound 103] | 7.68
CCCc1ccc(CCC)n1-c1cccc([C@H](CCN2CCOCC2)OC(=O)[C@@H]2CCCCN2C(=O)C(=O)C(C)(C)C(C)C)c1 [Compound 104] | 6.06
CCCc1ccc(CCC)n1-c1cccc([C@H](OC(=O)[C@@H]2CCCCN2C(=O)C(=O)C(C)(C)C(C)C)/C(C)=C/c2ccncc2)c1 [Compound 106] | 5.68
CCCc1ccc(CCC)n1-c1cccc(C(OC(=O)[C@@H]2CCCCN2C(=O)C(=O)[C@@H]2CCCC[C@H]2C)/C(C)=C/c2ccncc2)c1 (some centres unmarked) [Compound 108] | 5.29
CCCc1ccc(CCC)n1-c1cccc(C(OC(=O)[C@@H]2CCCCN2C(=O)C(=O)C(C)(C)C(C)C)/C(C)=C/c2ccncc2)c1 (some centres unmarked) [Compound 109] | < 5.00
CCC/C(=C/COC)c1cncc([C@H](CCN2CCOCC2)OC(=O)[C@@H]2CCCCN2C(=O)C(=O)C(C)(C)C(C)C)c1 [Compound 114] | 6.76
COC/C=C(\c1cncc([C@@H](CCN2CCOCC2)OC(=O)[C@@H]2CCCCN2C(=O)C(=O)C(C)(C)C(C)C)c1)C(C)C [Compound 115] | 7.36
COC/C=C(\c1cncc([C@H](CCN2CCOCC2)OC(=O)[C@@H]2CCCCN2C(=O)C(=O)C(C)(C)C(C)C)c1)C(C)C [Compound 116] | 6.89
CCC/C(=C/COC)c1cncc([C@@H](CCN2CCOCC2)OC(=O)[C@@H]2CCCCN2C(=O)C(=O)[C@@H]2CCCC[C@H]2C)c1 [Compound 117] | 6.82
COC/C=C(\c1cncc([C@@H](CCN2CCOCC2)OC(=O)[C@@H]2CCCCN2C(=O)C(=O)[C@@H]2CCCC[C@H]2C)c1)C(C)C [Compound 118] | 7.15
CCCCc1ccc(C)n1-c1cccc([C@@H](CCN2CCOCC2)OC(=O)[C@@H]2CCCCN2C(=O)C(=O)[C@@H]2CCCC[C@H]2C)c1 [Compound 120] | 7.10
CCCCc1ccc(C)n1-c1cccc([C@@H](CCN2CCOCC2)OC(=O)[C@@H]2CCCCN2C(=O)C(=O)[C@@H]2C[C@H](OCC)CC[C@H]2C)c1 [Compound 121] | 7.07
CCCCc1ccc(C)n1-c1cccc([C@@H](CCN2CCOCC2)OC(=O)[C@@H]2CCCCN2C(=O)C(=O)C(C)(C)C(C)C)c1 [Compound 122] | 7.49
COC/C=C(\c1cncc([C@@H](CCN2CCOCC2)OC(=O)[C@@H]2CCCCN2C(=O)C(=O)[C@@H]2C[C@H](C(C)(C)OC)CC[C@H]2C)c1)C(C)C [Compound 124] | 6.00

— patent US5935954A, “Compounds with improved multi-drug resistance activity” (Vertex Pharmaceuticals Incorporated, priority 1997, dated 1999)
